Measurements as given in US8986689B2, “Compositions and methods for brain delivery of analgesic peptides” (National Research Council of Canada, priority 2010, dated 2015).
Non-standard residues stand in square brackets, D forms with d. No end group written: not given here.

Key:
[1] = system: male CD-1 mice; assay: Tail flick assay (acute pain); format: in vivo, mouse; conditions: for Analgesic effect after intra-cerebroventricular injection: 15 min and 30 min after injection
[2] = system: male Wistar rats; assay: Paw flick assay (Hargreaves method, CFA chronic inflammatory pain); format: in vivo, rat; conditions: for Analgesic effect after intravenous injection: tail vein, three injections at 0, 1 and 2 h, Dalargin-cys 0.34 mg/kg, FC5 and EG2-Dalargin 7 mg/kg
Experimental: (§1) Chronic inflammatory pain was induced in 4-6 week old male Wistar rats, by a intra-plantar (i.pl.) injection (100 μl with a 30-gauge needle) of complete Freund's adjuvant in sterile water in a ratio of 1:1 in the right hind paw under brief isoflurane anesthesia (3%). Three days after CFA injection the putative antinociceptive effect of different compounds was quantified by measuring latencies of withdrawal of both hind limb paws (ipsilateral and contralateral to CFA injection) in response to radiant heat using digitalized plantar Analgesia Meter for paw stimulation (IITC Model #336TG Life Science, Inc.). A rapid paw withdrawal on the side of CFA injection (compared to the contralateral non-injected paw) was indicative of inflammatory pain. During the training period (before experiments), the light-intensity lamp was adjusted to elicit baseline paw withdrawal latencies between 17 to 20 s (in rats). […] Results were analyzed as temporal courses of paw withdrawal latency (sec) versus time (min or hrs) and expressed as % of maximum possible effect (% MPE) as described in Example 5. A subcutaneous injection of morphine 10 mg/kg served as a positive control.
For intra-cerebroventricular injections in rats, a longitudinal incision was made in the scalp to identify the bregma; then animals received a unilateral 5 μl intra-cerebroventricular injection of either FC5-Dalargin or Dalargin alone approximately 0.8 mm anterioposterior (AP) level of bregma, 1.5 mm with respect to the midline and 3.5 mm ventral from the skull surface. Injections were made using a Hamilton syringe equipped with a 25-gauge needle. Injection depth was controlled by a plug on the needle to prevent more than 3.5 mm penetration beyond the skull surface.
In contrast, FC5-Dalargin induced cumulative analgesia after each i.v. dosing, reaching 100% MPE 45 min-1 hour after the third injection and gradually ‘washing-out’ over a subsequent three hours (FIG. 12, closed triangles), similar to what was observed after intra-cerebroventricular injections of Dalargin-cys and FC5-Dalargin (FIGS. 10 and 11). If Fc5-Dalargin injection was given 4th time at 3 h (FIG. 12, open polygons), the ‘wash-out’ (i.e., disappearance of analgesic effect) was somewhat extended. […] When Dalargin is functionalized with the blood-brain barrier ‘carrier’ single domain antibody, FC5, Dalargin becomes efficacious in inducing analgesia in chronic pain because FC5 enables its delivery across the blood brain barrier to the sites of its pharmacological action, central opioid receptors.
as §1, with “5-7 weeks” for “4-6 week”, “5.” for “5. A subcutaneous injection of morphine 10 mg/kg served as a positive control.”
Rats received 5 μl intra-cerebroventricular injections of NPY (1 μg) as described in Example 6.
NPY was then injected intravenously in the tail vein in two injections, each containing 2.02 mg/kg of NPY, 1 h apart from each other as described in Example 6. […]

[3] = biological target: opioid receptors (Rattus norvegicus, UniProt P33535); assay: Opioid receptor binding competition assay against 3H-DAMGO in isolated rat brain membranes; conditions: 30 nM 3H-DAMGO, capillary-depleted rat brain membranes
Chain of opioid receptors (P33535 whole entry): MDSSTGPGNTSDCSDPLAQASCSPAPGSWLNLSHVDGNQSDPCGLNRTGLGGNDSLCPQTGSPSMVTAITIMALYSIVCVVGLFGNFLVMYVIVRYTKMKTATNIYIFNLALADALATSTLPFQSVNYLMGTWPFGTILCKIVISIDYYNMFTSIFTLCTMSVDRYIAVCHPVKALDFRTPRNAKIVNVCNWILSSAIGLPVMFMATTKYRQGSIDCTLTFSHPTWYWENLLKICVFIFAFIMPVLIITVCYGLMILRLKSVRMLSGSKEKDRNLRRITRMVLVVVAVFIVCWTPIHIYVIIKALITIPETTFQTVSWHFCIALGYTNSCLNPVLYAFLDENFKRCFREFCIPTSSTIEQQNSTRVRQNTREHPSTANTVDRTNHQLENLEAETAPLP
Experimental: The homogenate was centrifuged at 5800×g (10,000 rpm; Beckman L8-70 Ultracentrifuge, Rotor: SW 40) for 20 min at 4 degrees. The upper parenchyma layer was then collected and centrifuged under the same conditions. The upper parenchyma layer was again collected, and 1 Volume of 50 mM Tris-buffer pH 7.4 containing [2×] of protease inhibitor was added to the collected parenchyma. The mixture was homogenized using a motorized pestle. The homogenate was centrifuged at 46,000×g for 15 minutes at 4° C. The supernatant was removed and the pellet re-suspended in 1 Volume Tris-buffer pH 7.4 containing [2×] of protease inhibitor. The re-suspended pellet was incubated at 37° C. for 15 minutes with agitation in a 50 ml conical tube to dissociate endogenous opioids from receptors. After incubation, the homogenate was centrifuged at 46,000×g for 15 minutes at 4° C. The supernatant was again removed and the pellet re-suspended in 1 to 1.5 Volume Tris-buffer pH 7.4 containing [1×] of protease inhibitor. The membrane preparation was aliquoted into 1.5 ml tubes in 1 ml samples and stored at −80° C.
Opioid Receptor binding assay used a μ opioid receptor agonist, ^3H-DAMGO, to bind to opioid receptors present in the rat brain membrane preparation. Displacement studies were done with unlabelled ligands, Dalargin, and Dalargin-FC5. Briefly, diluted reagents were prepared using 50 mM Tris-buffer pH7.4, as follows: • i. […] 500 nM FC5-Dal: 16.67 μl 30 μM FC5-Dal and 1 ml Tris-buffer; • v.
Tris-buffer was added to each well, followed by a range of Dalargin concentrations, followed by ^3H-DAMGO. The reaction mixture was left at RT with gentle orbital shaking for 1.5 hr. A scintillation cocktail was then added and radioactive counts were measured using beta scintillation counter.
Specific activity for ^3H-DAMGO was 56.8 Ci/mmol. Percentage specific bound at each concentration of unlabelled competitor was calculated using the formula: % specific bound=Bound/Total bound*100.

[4] = system: Immortalized Adult Rat brain endothelial cells (ARBEC); assay: Transport across in vitro blood brain barrier model; conditions: Cy5.5-labelled, 10 μg/ml added to apical chamber, ARBEC monolayer
Experimental: FC5 and FC5-Dalargin were labelled by covalent conjugation to Cy5.5 N-hydroxysuccinimide (NHS) ester using methods recommended by the manufacturer (GE Healthcare). Cy5.5 NHS was bound to FC5 through a thioether covalent bond.
Immortalized Adult Rat brain endothelial cells (ARBEC) were used as the in vitro blood brain barrier model. ARBEC (80,000 cells/membrane) were seeded on a 0.5% gelatine-coated Falcon tissue culture inserts (pore size-1 μm; surface area 0.83 cm^2) in 1 ml of growth medium. The bottom chamber of the insert assembly contained 2 ml of growth medium supplemented with the fetal human astrocyte-conditioned medium in a 1:1 (v/v) ratio.
Transport studies were performed 7 days post-seeding. Filter inserts were rinsed with transport buffer (PBS containing 5 mM glucose, 5 mM MgCl2, 10 mM HEPES, 0.05% BSA, pH 7.4) and allowed to equilibrate at 37° C. for 30 minutes. Experiments were initiated by adding 10 μg/ml Cy5.5-labelled FC5-Dalargin or Cy5.5-labelled FC5 to the apical chamber. Aliquots (100 μl) were collected from the opposite chamber at various time intervals (5, 15, 30, 60, 120 minutes) and replaced with fresh buffer. The amount of FC5-Dalargin transported across HCEC monolayers was determined by fluorescence in a fluorescence plate reader.

[5] = 0.86 mg/kg of Dalargin, intra-carotid, 30 min after injection
[6] = 1.72 mg/kg of Dalargin, intra-carotid, 30 min after injection

Molecule: Tyr-[D-Ala]-Gly-Phe-Leu-Arg (Y[dA]GFLR) [Dalargin]
- % MPE (30 min) [1, 5]: 19%
- % MPE (30 min) [1, 6]: 17%
- Time of return to basal levels after intra-cerebroventricular injection ([1]; icv): 60 min
- Analgesic effect after intra-cerebroventricular injection ([1]; icv): reaching maximal latency of response
- Analgesic effect after intra-carotid injection ([1]; intra-carotid, 0.86 and 1.72 mg/kg): No analgesic effect

Molecule: Dalargin-cysteamide-OH (Y[dA]GFLR; not fully specified (C-terminus)) [Dalargin with a cysteamide-OH residue used for conjugation]
- % of maximal effect ([2]; icv, 1.08 μg): 75%
- % MPE ([2]; icv, 10.08 μg): 100%
- Analgesic effect after intravenous injection [2]: did not increase latency of withdrawal of the inflamed paw
- Displacement of 3H-DAMGO (receptor binding competition) [3]: only slightly less potent than Dalargin
- Time of return to basal levels after intra-cerebroventricular injection ([1]; icv): 60 min
- Analgesic effect after intra-cerebroventricular injection ([1]; icv): reaching maximal latency of response

Molecule: FC5-Dalargin: FC5 sdAb conjugated via Sulfo-SMCC cross-linker to Dalargin-cysteamide
- Permeability co-efficients (Pe) [4]: 4.17 ×10⁻⁶ cm/s
- % MPE ([2]; i.v. 7 mg/kg, three injections at 0, 1, 2 h, 45 min-1 hour after the third injection): 100%
- Analgesic effect after icv injection ([2]; icv, 74.4 μg): complete analgesia
- Duration of analgesia after icv injection ([2]; icv, 74.4 μg): 120 min
- Displacement of 3H-DAMGO (receptor binding competition) [3]: only slightly less potent than Dalargin
- % MPE (30 min) [1, 5]: 63%
- % MPE (30 min) ([1]; 0.86 mg/kg of Dalargin, intra-carotid, 30 min after injection, listed as FC5-Dal): 63%
- % MPE (30 min) [1, 6]: 66%
- % MPE (30 min) ([1]; 1.72 mg/kg of Dalargin, intra-carotid, 30 min after injection, listed as FC5-Dal): 66%
- Maximal analgesia, % of maximum effect ([1]; icv, 30 min after injection): 40%
- Persisting analgesia, % above basal levels ([1]; icv, for up to 90 min): 10-15%

Molecule: CN1CC[C@]23c4c5ccc(O)c4O[C@H]2[C@@H](O)C=C[C@H]3[C@H]1C5 [Morphine, morphine]
- Effect on CFA-injected paw withdrawal latency ([2]; 10 mg/kg subcutaneous, positive control): prompt increase in CFA-injected paw withdrawal latency to values of the contralateral, non-inflamed paw
- Duration of the increase in paw withdrawal latency ([2]; 10 mg/kg subcutaneous, then slowly diminishing over 3 hours): 60 min
- % of the maximal analgesic effect (observed with 10 mg/kg morphine) ([1]; 3 mg/kg s.c.): approximately 50%
- % MPE (30 min) ([1]; 3 mg/kg sc, 30 min after injection): 56%
- Tail flick latency ([1]; 10 mg/kg morphine s.c., 30 min after injection, cut-off 10 sec): 10 s
- % MPE (30 min) ([1]; 10 mg/kg sc, 30 min after injection): 100%

B1: FC5: blood-brain barrier-transmigrating single domain antibody, SEQ ID NO:4, expressed with His5 and c-myc tags (protein)
VHH: EVQLQASGGGLVQAGGSLRLSCAASGFKITHYTMGWFRQAPGKEREFVSRITWGGDNTFYSNSVKGRFTISRDNAKNTVYLQMNSLKPEDTADYYCAAGSTSTATPLRVDYWGKGTQVTVSS
modifications: His5 and c-myc tags; FC5 sdAb
- Permeability co-efficients (Pe) [4]: 3.25 ×10⁻⁶ cm/s
- Analgesic effect after intravenous injection [2]: Neither FC5 alone nor EG2-Dalargin construct induced any analgesic effect
- Displacement of 3H-DAMGO (receptor binding competition) [3]: did not displace
